From US11291666B2, “Uses” (INTRA-CELLULAR THERAPIES, INC., priority 2016, dated 2022)

Legend:
BV2 cells [1] = assay: Quantitative PCR of inflammatory cytokine mRNA in LPS-treated BV2 cells; assay type: cell-based, mouse
Protocol: Levels of IL1β are measured using quantitative PCR of IL1β mRNA. IL1β is considered a marker of inflammation. Results are depicted in FIG. 2 (RQ: relative quantification of changes in gene expression in treated versus control samples; ***p<0.01 vs control, √p<0.01 vs LPS alone; ANOVA with Newman-Keuls post-hoc test).
BV2 cells are pretreated with compound, ITI-214 or rolipram, a PDE4 inhibitor, then stimulated with 50 ng/ml LPS for 4 hours. Expression levels of TNF, IL1β, Ccl2, and IL6 are measured. Normalized mRNA levels are shown as change from vehicle (ΔΔCt) and compared using a one-way ANOVA. […] The mRNA transcripts for TNF, IL1β, and Ccl2—three of the four cytokines studied in vivo—were elevated in BV2 cells treated with 50 ng/ml LPS.
(§1) The test compound is added first, the LPS is added one hour later, and the cells and/or media are harvested at five hours from commencement of the experiment.
RTqPCR: RNA from BV2 cells purified using RNeasyKit (Qiagen) and from mouse tissue using TRIzol (Ambion). TaqMan primer-probe assays from Thermo Fisher. mRNA levels for all conditions are normalized to GAPDH and to vehicle control (ΔΔCt). Data are analyzed statistically using one-way ANOVA with the Bonferroni post-test for multiple comparisons.

BV2 cells [2] = assay: RNAseq analysis of LPS-stimulated BV2 cells, differentially expressed transcripts; assay type: cell-based, mouse; conditions: for genes affected by both Compound 214 and Rolipram / genes significantly affected by this compound but not the other (Compound 214 / Rolipram) / overlap of genes affected by Compound 214 and Rolipram: LPS-stimulated BV2 cells
Protocol: as §1
RNASeq: Flashfreeze BV2cells, isolate RNA, prepare a library using polyA selection, and conduct 1×50 bp single read sequencing on the Illumina HiSeq 2500 in High Output mode (using V4 chemistry). Genes are mapped to reference genome (GRCm38) using CLC Genomics Server. Number of reads per sample average ˜17 million. Differential gene expression analysis is performed using DESeq2software (Bioconductor.org). Differentially expressed genes (p<0.01, Waldtest) are reported as log 2(fold change).

[3] = BV2 cells, 50 ng/ml LPS for 4 hours, 10 μM, FIG. 4b
[4] = BV2 cells, Compound 214 at 10 μM, FIG. 4a

CN1C(=O)c2c(nn(Cc3ccc(-c4cccc(F)n4)cc3)c2Nc2ccccc2)N2C1=N[C@@H]1CCC[C@@H]12 [Compound 214] was tested, and the “Chemokine (C-C) motif Ligand 2 expression (Q-PCR)” value (BV2 cells [1]; BV2 + LPS, initial results) was “Down”, the “Interleukin 1 beta expression (Q-PCR)” value (BV2 cells [1]; BV2 + LPS, initial results) was “Down” and the “Tumor necrosis factor expression (Q-PCR)” value (BV2 cells [1]; BV2 + LPS, initial results) was “Down”. The “Ccl2 mRNA signal” value (BV2 cells [1]; [3]) was “significantly decreased”, the “IL1β mRNA signal” value (BV2 cells [1]; [3]) was “trended downward” and the “TNF mRNA signal” value (BV2 cells [1]; [3]) was “significantly decreased”. The “LPS-induced increase in expression of Ccl2” value (BV2 cells [1]; [4]) was “significantly reduces”, the “LPS-induced increase in expression of IL1β” value (BV2 cells [1]; [4]) was “significantly reduces” and the “LPS-induced increase in expression of TNFα” value (BV2 cells [1]; [4]) was “significantly reduces”. For the same compound, the “LPS-induced changes in proinflammatory markers” value (BV2 cells [1]; BV2 cells, separate experiment, FIG. 4b, 50 ng/ml LPS for 4 hours) was “greatly reduces or blunts”, the “mRNA transcripts decreased in the presence of LPS + compound vs. LPS alone” value (BV2 cells [2]; BV2 cells, RNAseq) was 138 transcripts and the “overlap between the Compound 214 and rolipram sets of decreased transcripts” value (BV2 cells [2]; BV2 cells, RNAseq) was 48 transcripts. For the same compound, the “overlap between the Compound 214 and rolipram sets of elevated transcripts” value (BV2 cells [2]; BV2 cells, RNAseq) was 45 transcripts, the “transcripts elevated in the presence of LPS + compound vs. LPS alone” value (BV2 cells [2]; BV2 cells, RNAseq) was 149 transcripts and the “genes affected by both Compound 214 and Rolipram” value (BV2 cells [2]; further RNASeq analysis) was 114 genes. For the same compound, the “genes significantly affected by this compound but not the other (Compound 214 / Rolipram)” value (BV2 cells [2]; further RNASeq analysis) was 293 genes, the “overlap of genes affected by Compound 214 and Rolipram” value (BV2 cells [2]; further RNASeq analysis) was “about 17%” and the “genes affected by both Compound 214 and Rolipram” value (BV2 cells [2]; still a further experiment) was 683 genes. For the same compound, the “genes significantly affected by this compound but not the other (Compound 214 / Rolipram)” value (BV2 cells [2]; still a further experiment) was 1240 genes and the “overlap of genes affected by Compound 214 and Rolipram” value (BV2 cells [2]; still a further experiment) was “about half”.
